Experimental findings from ChEMBL document CHEMBL1201862, “PubChem BioAssay data set” (2004) are described below.

Among the test systems are SNB-19; OVCAR-4; TK-10; BT-549; U-251; DU-145; SNB-75; SW-620; NCI-H522; A498; SR; SK-OV-3; COLO 205; 786-0; OVCAR-5; HT-29; OVCAR-8; SF-539; KM12; HL-60.
Common to all, as to test: inhibition of tumour cell growth, NCI panel, 48 h

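Five concentrations, 48 hours, 96-well plates. Here, GI50 denotes the concentration required for 50% inhibition of growth.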 The source made the active and inactive calls. No stated cut-off is given here; in the data, active = GI50 up to about 1.1 µM and inactive = higher. Starred links: 1 amine or outer side, 2 acyl side, 3 side chain; linkers in the order of their positions; H or OH if unused. Positions of bridges follow the written chain, without caps; N, C: chain ends. Non-standard residues stand in square brackets, D forms with d. Residues, ends and D or L forms follow the SMILES beside them. ξ: configuration not given here. X37 = CC[C@H](C)[C@@H](N[*:1])[C@@H](O)CC(=O)O[C@H](C(=O)[C@H](C)C(=O)[*:2])C(C)C; NMeY = CN[C@@H](Cc1ccc(O)cc1)C(=O)O; dNMeL = CN[C@H](CC(C)C)C(=O)O; ξΔPro = O=C(O)C1C=CCN1

Take `Cc1nn(-c2ccccc2)c2c1C(c1ccc(Cl)cc1)NC(=S)N2` (configuration not stated): the GI50 is 28.6 µM (inactive) in the assay with SNB-19; 54.5 µM (inactive) with OVCAR-4; 18.7 µM (inactive) in the assay on TK-10; 25.9 µM (inactive) with BT-549; 19.5 µM (inactive) in the assay on U-251; 88.9 µM (inactive) in the assay with DU-145. The GI50 is 48.5 µM (inactive) in the assay with SNB-75; 23 µM (inactive) in the assay on SW-620; 14 µM (inactive) in the assay on NCI-H522; 23.1 µM (inactive) in the assay with A498; 36.6 µM (inactive) with SR; 22.9 µM (inactive) in the assay on SK-OV-3. The GI50 with COLO 205 is 17.2 µM (inactive); in the assay with 786-0, 15.6 µM (inactive); in the assay with OVCAR-5, 27.5 µM (inactive); in the assay on HT-29, 30.5 µM (inactive); with OVCAR-8 it was 22.5 µM (inactive); in the assay on SF-539, 18.5 µM (inactive). Moreover, the values for the GI50 in the assay with KM12 and in the assay on HL-60 were 23.1 µM (inactive) and 31.9 µM (inactive), respectively.

Turning to `CCOC(=O)C1(Cc2ccccc2)C=CN(C(=O)c2ccccc2)C=C1`, the GI50 in the assay on SNB-19 was 46.5 µM (inactive); in the assay on OVCAR-4, 42.8 µM (inactive); in the assay with TK-10, 28.4 µM (inactive); in the assay with BT-549, 33.8 µM (inactive); in the assay on U-251 it was 29.2 µM (inactive); in the assay with DU-145, 57.3 µM (inactive). Besides, the GI50 in the assay with SNB-75 was 17.8 µM (inactive); in the assay with SW-620, 32.2 µM (inactive); in the assay with NCI-H522 it was 24.5 µM (inactive); in the assay with A498, 22.9 µM (inactive); with SR, 22.4 µM (inactive); in the assay on SK-OV-3, > 100 µM (inactive). The GI50 with COLO 205 was 17.8 µM (inactive); in the assay on 786-0, 43.7 µM (inactive); in the assay on OVCAR-5, > 100 µM (inactive); in the assay with HT-29, 34.2 µM (inactive); in the assay on OVCAR-8, 34.4 µM (inactive); with SF-539 it was 42.9 µM (inactive). For the same compound, the results for the GI50 in the assay on KM12 and in the assay with HL-60 were 36.9 µM (inactive) and 16.6 µM (inactive), respectively.

On to `N=c1oc2ccc([N+](=O)[O-])cc2cc1C(=O)Nc1ccccn1`, for which the GI50 was 33.9 µM (inactive) with SNB-19; 90.8 µM (inactive) with OVCAR-4; 48.4 µM (inactive) in the assay with BT-549; 45.5 µM (inactive) in the assay on U-251; 60.4 µM (inactive) in the assay with DU-145; 60.1 µM (inactive) with SNB-75. Besides, the GI50 in the assay on SW-620 was 70.3 µM (inactive); in the assay on NCI-H522 it was 24.5 µM (inactive); in the assay with A498, > 100 µM (inactive); in the assay on SR, 58.1 µM (inactive); in the assay with SK-OV-3, > 100 µM (inactive); in the assay on COLO 205, 44 µM (inactive). Also, the GI50 with 786-0 was 19.2 µM (inactive); in the assay on OVCAR-5 it was > 100 µM (inactive); in the assay with HT-29 it was 49.8 µM (inactive); in the assay on OVCAR-8 it was 92.3 µM (inactive); in the assay with SF-539, 26.2 µM (inactive); in the assay on KM12, 34.3 µM (inactive). For the same compound, the GI50 in the assay on HL-60 is 49.4 µM (inactive).

For the compound `O=C(Cn1ccc(=O)[nH]c1=O)Nc1ccc(C(=O)O)c(O)c1`, the GI50 with SNB-19, with OVCAR-4, in the assay on TK-10, in the assay with BT-549, in the assay with U-251 and with DU-145 was > 100 µM (inactive) throughout. In addition, the GI50 in the assay on SNB-75 was > 100 µM (inactive); in the assay on SW-620, > 100 µM (inactive); in the assay with NCI-H522 it was > 100 µM (inactive); in the assay with A498, > 100 µM (inactive); in the assay on SR it was > 100 µM (inactive); with SK-OV-3, < 0.01 µM (active). Besides, the GI50 with COLO 205, in the assay with 786-0, in the assay with OVCAR-5, in the assay on HT-29, in the assay on OVCAR-8 and with KM12 was > 100 µM (inactive) throughout. The GI50 in the assay with HL-60 is > 100 µM (inactive).

With `CCCC(=O)Nc1cc(/C=C/C(=O)N2CC(CCl)c3c2cc([N+](=O)[O-])c2ccccc32)n(C)c1` (configuration not stated), the GI50 in the assay on SNB-19 is > 100 µM (inactive); in the assay on OVCAR-4 it was > 100 µM (inactive); with TK-10, > 100 µM (inactive); in the assay with BT-549, > 73.3 µM (inactive); in the assay with U-251 it was > 63.5 µM (inactive); with DU-145 it was 0.632 µM (active). In addition, the GI50 was 6.12 µM (inactive) in the assay with SNB-75; > 100 µM (inactive) in the assay with SW-620; > 100 µM (inactive) in the assay with NCI-H522; 8.49 µM (inactive) in the assay on A498; 0.796 µM (active) with SR; > 100 µM (inactive) with SK-OV-3. The GI50 in the assay with COLO 205 is > 100 µM (inactive); in the assay on 786-0, > 60.8 µM (inactive); in the assay with OVCAR-5 it was > 100 µM (inactive); in the assay with HT-29 it was > 100 µM (inactive); with OVCAR-8 it was 16.5 µM (inactive); with SF-539, 56.1 µM (inactive). Further, in the assay on HL-60, the GI50 is 0.767 µM (active).

On to `CC[C@H](C)[C@H]1NC(=O)[C@@H](NC(=O)[C@@H](CC(C)C)N(C)C(=O)C2C=CCN2)[C@@H](C)OC(=O)[C@H](Cc2ccc(OC)cc2)N(C)C(=O)[C@@H]2CCCN2C(=O)[C@H](CC(C)C)NC(=O)[C@@H](C)C(=O)[C@H](C(C)C)OC(=O)C[C@@H]1O` (some centres not stated) (H-[ξΔPro][dNMeL]T[X37]LP[NMeY](Me); ester 3-C), for which the GI50 in the assay on SNB-19, in the assay on OVCAR-4, in the assay on TK-10, in the assay with BT-549, in the assay on U-251 and in the assay on DU-145 was < 0.005 µM (active) throughout. For the same compound, the GI50 in the assay with SNB-75 was < 0.005 µM (active); with SW-620, < 0.005 µM (active); in the assay with NCI-H522, < 0.005 µM (active); with A498, 0.00594 µM (active); with SR it was < 0.005 µM (active); in the assay on SK-OV-3 it was < 0.005 µM (active). Also, the GI50 with COLO 205, in the assay with 786-0, in the assay on OVCAR-5, in the assay on HT-29, in the assay on OVCAR-8 and in the assay on KM12 was < 0.005 µM (active) each time. Further, the GI50 with HL-60 is 0.00703 µM (active).

`O=C1CSC(/C=C/c2ccccc2)N1c1ccc(-c2ccc(-n3c(-c4ccccc4)nc4ccccc4c3=O)cc2)cc1` (configuration not stated): the GI50 in the assay with SNB-19 was 21.8 µM (inactive); in the assay with OVCAR-4 it was 15.8 µM (inactive); in the assay with TK-10, 39.5 µM (inactive); with BT-549, 17.2 µM (inactive); in the assay with U-251 it was 21.5 µM (inactive); in the assay on DU-145 it was 24.7 µM (inactive). The GI50 with SNB-75 is 0.562 µM (active); in the assay on SW-620 it was 19.4 µM (inactive); in the assay with NCI-H522, 17.8 µM (inactive); with A498 it was 42.2 µM (inactive); in the assay with SR, 28.3 µM (inactive); in the assay on SK-OV-3, 51.8 µM (inactive). The GI50 in the assay with COLO 205 was 18.2 µM (inactive); in the assay with 786-0 it was 13.4 µM (inactive); with OVCAR-5, 6.04 µM (inactive); in the assay with HT-29, 14.5 µM (inactive); in the assay on OVCAR-8 it was 25.1 µM (inactive); in the assay on KM12, 17.3 µM (inactive). Moreover, in the assay on HL-60, the GI50 is 28.8 µM (inactive).

As to `NC(CSCc1ccccc1)C(=O)O` (configuration not stated), the GI50 in the assay with SNB-19, with OVCAR-4, in the assay on TK-10, in the assay on BT-549, with U-251 and in the assay with DU-145 was > 100 µM (inactive) each time. Besides, the GI50 in the assay with SNB-75, in the assay with SW-620, in the assay on NCI-H522, with A498, with SR and with SK-OV-3 was > 100 µM (inactive) in each case. Also, the GI50 in the assay on COLO 205, in the assay on 786-0, in the assay on OVCAR-5, in the assay on HT-29, with OVCAR-8 and in the assay with KM12 was > 100 µM (inactive) in each case. For the same compound, the GI50 in the assay on HL-60 is > 100 µM (inactive).

As to `CC1(C)OC2COC(c3n[nH]c4c(=O)[nH]c(=O)[nH]c34)C2O1` (configuration not stated), the GI50 in the assay with SNB-19, in the assay with OVCAR-4, with TK-10, with BT-549, with U-251 and with DU-145 was > 100 µM (inactive) throughout. Moreover, the GI50 in the assay with SW-620, with NCI-H522, with A498, with SR, in the assay with SK-OV-3 and in the assay with COLO 205 was > 100 µM (inactive) in each case. Further, the GI50 in the assay on 786-0, in the assay on OVCAR-5, in the assay with HT-29, in the assay on OVCAR-8, in the assay with SF-539 and with KM12 was > 100 µM (inactive) each time. Besides, the GI50 in the assay with HL-60 is > 100 µM (inactive).

Take `CCC1(CCSC(=N)N)C(=O)NC(=O)NC1=O`: the GI50 in the assay with SNB-19, in the assay on OVCAR-4, with TK-10, in the assay on BT-549, in the assay with U-251 and in the assay on DU-145 was > 100 µM (inactive) in each case. Further, the GI50 with SW-620, in the assay on NCI-H522, in the assay with A498, with SR, in the assay on SK-OV-3 and in the assay with COLO 205 was > 100 µM (inactive) throughout. In addition, the GI50 in the assay with 786-0, with OVCAR-5, in the assay on HT-29, in the assay with OVCAR-8, with SF-539 and with KM12 was > 100 µM (inactive) each time. Moreover, the GI50 in the assay with HL-60 is 48.9 µM (inactive).
